Measurements taken from patent US9115122B2, “Non-ATP dependent inhibitors of extracellular signal-regulated kinase (ERK)” (UNIVERSITY OF MARYLAND, BALTIMORE, priority 2012, dated 2015).

Legend:
Test in all cases: Cell proliferation WST-1 assay, single dose (Example 4)
Type in all cases: cell-based
Settings in all cases: 100 μM, 48 hours
[1] = system: HeLa cervical carcinoma cells
Description: (§1) In addition, compounds were tested in RPMI-7951 cells, which also contain mutated BRaf and are resistant to BRaf inhibitors due to the overexpression of MAP3K8 (the gene encoding COT/Tp12) that provides an alternative mechanism to indirectly or directly activate ERK proteins. […] For comparison, HeLa cervical carcinoma and Jurkat T-cell leukemia cells, which are p53 defective cancer cell lines but contain no known activating mutations in the ERK pathway, were studied. […] Cell proliferation was evaluated by water soluble tetrazolium-1 (WST-1) assay as previously described. Briefly, cells (˜5000/well) were seeded in 96 well plates, allowed to recover for 16-20 hours, and then treated with the indicated test compound for 48 hours. After incubation, WST-1 reagent was added and absorbance was read at 450 nm with background subtraction taken at 650 nm. Values were normalized to the control (DMSO only treated) cells.

[2] = system: A375 melanoma cells
Description: as §1

[3] = system: SK-MEL-28 melanoma cells
Description: as §1

[4] = system: RPMI-7951 melanoma cells
Description: as §1

[5] = system: HL-60 leukemic cells
Description: as §1

[6] = system: Jurkat T-cell leukemia cells
Description: as §1

Compound	Cell Viability (% of Vehicle) HeLa [1]	Cell Viability (% of Vehicle) A375 [2]	Cell Viability (% of Vehicle) SK-MEL-28 [3]	Cell Viability (% of Vehicle) RPMI-7951 [4]	Cell Viability (% of Vehicle) HL-60 [5]	Cell Viability (% of Vehicle) Jurkat [6]
CCOc1ccc(/C=C2\SC(=O)NC2=O)cc1 [Compound 2, (Z)-5-(4-ethoxybenzylidene)thiazolidine-2,4-dione]	98 ± 13 % of Vehicle	110 ± 10 % of Vehicle	103 ± 1 % of Vehicle	144 ± 2 % of Vehicle	103 ± 16 % of Vehicle	104 ± 4 % of Vehicle
CCOc1ccc(CC2SC(=O)N(CCN)C2=O)cc1 (stereo not drawn) [Compound 6, 3-(2-aminoethyl)-5-(4-ethoxybenzyl)thiazolidine-2,4-dione]	90 ± 4 % of Vehicle	92 ± 6 % of Vehicle	88 ± 3 % of Vehicle	70 ± 5 % of Vehicle	41 ± 17 % of Vehicle	108 ± 10 % of Vehicle
CCOc1ccc(/C=C2\SC(=S)N(CCN)C2=O)cc1 [Compound 9, (Z)-3-(2-aminoethyl)-5-(4-ethoxybenzylidene)-2-thioxothiazolidin-4-one]	26 ± 6 % of Vehicle	21 ± 10 % of Vehicle	45 ± 7 % of Vehicle	3.3 ± 2 % of Vehicle	7.9 ± 3 % of Vehicle	52 ± 4 % of Vehicle
CCOc1ccc(/C=C2\CC(=O)N(CCN)C2=O)cc1 [Compound 13, (E)-1-(2-aminoethyl)-3-(4-ethoxybenzylidene)pyrrolidine-2,5-dione]	75 ± 2 % of Vehicle	29 ± 3 % of Vehicle	65 ± 4 % of Vehicle	19 ± 5 % of Vehicle	58 ± 28 % of Vehicle	100 ± 10 % of Vehicle
CCOc1ccc(/C=C2\CCN(CCN)C2=O)cc1 [Compound 17, (E)-1-(2-aminoethyl)-3-(4-ethoxybenzylidene)pyrrolidin-2-one]	89 ± 4 % of Vehicle	95 ± 2 % of Vehicle	79 ± 6 % of Vehicle	96 ± 3 % of Vehicle	73 ± 9 % of Vehicle	92 ± 2 % of Vehicle
CCOc1ccc(/C=C/C(=O)NCCN)cc1 [Compound 20, (E)-N-(2-aminoethyl)-3-(4-ethoxyphenyl)acrylamide]	94 ± 5 % of Vehicle	81 ± 5 % of Vehicle	83 ± 4 % of Vehicle	93 ± 9 % of Vehicle	59 ± 25 % of Vehicle	89 ± 7 % of Vehicle
CCOc1ccc(/C=C2\SC(=O)N(CC(C)N)C2=O)cc1 (stereo not drawn) [Compound 22b, (Z)-3-(2-aminopropyl)-5-(4-ethoxybenzylidene)thiazolidine-2,4-dione]	49 ± 7 % of Vehicle	25 ± 4 % of Vehicle	32 ± 4 % of Vehicle	16 ± 1 % of Vehicle	7.3 ± 3 % of Vehicle	58 ± 10 % of Vehicle
CCOc1ccc(/C=C2\SC(=O)N(C(C)CN)C2=O)cc1 (stereo not drawn) [Compound 22c, (Z)-3-(1-aminopropan-2-yl)-5-(4-ethoxybenzylidene)thiazolidine-2,4-dione]	45 ± 7 % of Vehicle	13 ± 2 % of Vehicle	28 ± 4 % of Vehicle	22 ± 3 % of Vehicle	8.1 ± 3 % of Vehicle	54 ± 10 % of Vehicle
CCOc1ccc(/C=C2\SC(=O)N(C[C@H](N)C(=O)OC)C2=O)cc1 [Compound 22d, (S,Z)-methyl 2-amino-3-(5-(4-ethoxybenzylidene)-2,4-dioxothiazolidin-3-yl)propanoate]	87 ± 4 % of Vehicle	41 ± 11 % of Vehicle	33 ± 9 % of Vehicle	1.8 ± 0.1 % of Vehicle	25 ± 5 % of Vehicle	100 ± 5 % of Vehicle
CCOc1ccc(/C=C2\SC(=O)N(C(CN)CN)C2=O)cc1 [Compound 22e, (Z)-3-(1,3-diaminopropan-2-yl)-5-(4-ethoxybenzylidene)thiazolidine-2,4-dione]	62 ± 2 % of Vehicle	19 ± 4 % of Vehicle	32 ± 2 % of Vehicle	25 ± 3 % of Vehicle	11 ± 4 % of Vehicle	81 ± 9 % of Vehicle
CCOc1ccc(/C=C2\SC(=O)N(CCNC)C2=O)cc1 [Compound 23a, (Z)-5-(4-ethoxybenzylidene)-3-(2-(methylamino)ethyl)thiazolidine-2,4-dione]	85 ± 4 % of Vehicle	95 ± 2 % of Vehicle	91 ± 1 % of Vehicle	54 ± 7 % of Vehicle	17 ± 11 % of Vehicle	83 ± 6 % of Vehicle
CCNCCN1C(=O)S/C(=C\c2ccc(OCC)cc2)C1=O [Compound 23b, (Z)-5-(4-ethoxybenzylidene)-3-(2-(ethylamino)ethyl)thiazolidine-2,4-dione]	81 ± 2 % of Vehicle	51 ± 4 % of Vehicle	63 ± 10 % of Vehicle	60 ± 4 % of Vehicle	14 ± 4 % of Vehicle	69 ± 10 % of Vehicle
CCOc1ccc(/C=C2\SC(=O)N(CCNCC(C)C)C2=O)cc1 [Compound 23c, (Z)-5-(4-ethoxybenzylidene)-3-(2-(isobutylamino)ethyl)thiazolidine-2,4-dione]	3.7 ± 0.4 % of Vehicle	1.0 ± 0.1 % of Vehicle	1.3 ± 0.1 % of Vehicle	1.0 ± 0.1 % of Vehicle	10 ± 4 % of Vehicle	2.5 ± 0.1 % of Vehicle
CCOc1ccc(/C=C2\SC(=O)N(CCNCc3ccccc3)C2=O)cc1 [Compound 23d, (Z)-3-(2-(benzylamino)ethyl)-5-(4-ethoxybenzylidene)thiazolidine-2,4-dione]	37 ± 1 % of Vehicle	13 ± 1 % of Vehicle	25 ± 6 % of Vehicle	2.5 ± 0.3 % of Vehicle	5.0 ± 2 % of Vehicle	89 ± 4 % of Vehicle
CCOc1ccc(/C=C2\SC(=O)N(CCNCc3ccc(C#N)cc3)C2=O)cc1 [Compound 23e, (Z)-4-(((2-(5-(4-ethoxybenzylidene)-2,4-dioxothiazolidin-3-yl)ethyl)amino)methyl)benzonitrile]	88 ± 2 % of Vehicle	89 ± 3 % of Vehicle	96 ± 6 % of Vehicle	96 ± 5 % of Vehicle	75 ± 25 % of Vehicle	98 ± 5 % of Vehicle
CCOc1ccc(/C=C2\SC(=O)N(CCN(C)C)C2=O)cc1 [Compound 24a, (Z)-3-(2-(dimethylamino)ethyl)-5-(4-ethoxybenzylidene)thiazolidine-2,4-dione]	90 ± 5 % of Vehicle	115 ± 2 % of Vehicle	101 ± 0.3 % of Vehicle	130 ± 4 % of Vehicle	110 ± 14 % of Vehicle	95 ± 1 % of Vehicle
CCOc1ccc(/C=C2\SC(=O)N(CCN(Cc3ccccc3)Cc3ccccc3)C2=O)cc1 [Compound 24b, (Z)-3-(2-(dibenzylamino)ethyl)-5-(4-ethoxybenzylidene)thiazolidine-2,4-dione]	92 ± 9 % of Vehicle	122 ± 7 % of Vehicle	104 ± 4 % of Vehicle	120 ± 3 % of Vehicle	109 ± 24 % of Vehicle	104 ± 2 % of Vehicle
CCOc1ccc(/C=C2\SC(=O)N(CCN(Cc3ccc(C#N)cc3)Cc3cccc(C#N)c3)C2=O)cc1 [Compound 24c, (Z)-3-(((4-cyanobenzyl)(2-(5-(4-ethoxybenzylidene)-2,4-dioxothiazolidin-3-yl)ethyl)amino)methyl)benzonitrile]	97 ± 8 % of Vehicle	115 ± 1 % of Vehicle	107 ± 3 % of Vehicle	108 ± 9 % of Vehicle	108 ± 16 % of Vehicle	100 ± 2 % of Vehicle
